# Data published in US20150306081A1, “Chemotherapy for Drug-Resistant Cancer Cells” (THE UNIVERSITY OF SYDNEY, priority 2012, published 2015).
# Where two headings read alike, the source gives them in different places.
# Tests used:
# [1] = test system: Pgp-expressing KBV1 cells; test: MTT proliferation assay, KBV1 cells; format: cell-based, Human; conditions: for IC50: Homo sapiens, KB-V1, 72 h incubation; for IC50 / change of cytotoxicity in presence of Pgp inhibitors Val or Ela: KBV1 cells; for change of cytotoxicity in presence of Pgp inhibitors Val or Ela: Val 1 μM, Ela 0.1 μM, 72 h; for increase in resistance of KBV1 cells compared to KB31 cells: ratio of IC50, 72 h
# [2] = test system: Pgp expressing 2008/P200A cells; test: MTT proliferation assay, 2008/P200A cells; format: cell-based; conditions: for sensitivity of 2008/P200A cells compared to 2008 cells: 72 h; for change of cytotoxicity in presence of Pgp inhibitors Val or Ela: 2008/P200A cells, Val 1 μM, Ela 0.1 μM
# Method: (§1) The 2008 ovarian carcinoma cell line and the PAC-resistant 2008/P200A cell line (grown in 200 ng/mL of PAC) were kindly provided by Dr. John Allen (Centenary Institute, Sydney, Australia). Cells were grown in Dulbecco's modified Eagle's medium (DMEM; Life Technologies) with 10% (v/v) fetal calf serum (Sigma-Aldrich, St. Louis, Mo.) and supplemented with the following additions from Life Technologies: 1% (v/v) sodium pyruvate, 1% (v/v) non-essential amino acids, 100 U/mL penicillin, 100 μg/mL streptomycin, 2 mM L-glutamine and 0.28 μg/mL fungizone. The cells were then incubated at 37° C. in a humidified atmosphere of 5% CO2 and 95% air.
# (§2) The effect of anti-cancer agents on cellular proliferation was examined using the MTT [3-(4,5-dimethylthiazol-2-yl)-2,5-diphenyl tetrazolium] method. In this assay, 3×10^3 cells/well were seeded in 96-well plates in 100 μL of media. The next day, serially diluted drugs of interest were added. […] The cells were incubated at 37° C. in a humidified atmosphere containing 5% CO2 and 95% air for 72 h. After this incubation, 10 μL of MIT (5 mg/mL) was added to each well and the incubation continued at 37° C. for 2 h. After solubilization of the cells with 100 μL of 10% SDS-50% isobutanol in 10 mM HCl, the plates were read at 570 nm using a scanning multi-well spectrophotometer (Victor™ Multilabel Counter plate reader; Perkin Elmer, Australia). Results were analyzed to calculate the concentration of chelator or complex necessary to reduce the absorbance to 50% (IC50) of the control.
# Pgp [3] = molecular target: T1, Pgp (Homo sapiens, UniProt P08183); test: Pgp-ATPase activity assay (Pgp-Glo)
# T1 sequence (P08183 whole entry): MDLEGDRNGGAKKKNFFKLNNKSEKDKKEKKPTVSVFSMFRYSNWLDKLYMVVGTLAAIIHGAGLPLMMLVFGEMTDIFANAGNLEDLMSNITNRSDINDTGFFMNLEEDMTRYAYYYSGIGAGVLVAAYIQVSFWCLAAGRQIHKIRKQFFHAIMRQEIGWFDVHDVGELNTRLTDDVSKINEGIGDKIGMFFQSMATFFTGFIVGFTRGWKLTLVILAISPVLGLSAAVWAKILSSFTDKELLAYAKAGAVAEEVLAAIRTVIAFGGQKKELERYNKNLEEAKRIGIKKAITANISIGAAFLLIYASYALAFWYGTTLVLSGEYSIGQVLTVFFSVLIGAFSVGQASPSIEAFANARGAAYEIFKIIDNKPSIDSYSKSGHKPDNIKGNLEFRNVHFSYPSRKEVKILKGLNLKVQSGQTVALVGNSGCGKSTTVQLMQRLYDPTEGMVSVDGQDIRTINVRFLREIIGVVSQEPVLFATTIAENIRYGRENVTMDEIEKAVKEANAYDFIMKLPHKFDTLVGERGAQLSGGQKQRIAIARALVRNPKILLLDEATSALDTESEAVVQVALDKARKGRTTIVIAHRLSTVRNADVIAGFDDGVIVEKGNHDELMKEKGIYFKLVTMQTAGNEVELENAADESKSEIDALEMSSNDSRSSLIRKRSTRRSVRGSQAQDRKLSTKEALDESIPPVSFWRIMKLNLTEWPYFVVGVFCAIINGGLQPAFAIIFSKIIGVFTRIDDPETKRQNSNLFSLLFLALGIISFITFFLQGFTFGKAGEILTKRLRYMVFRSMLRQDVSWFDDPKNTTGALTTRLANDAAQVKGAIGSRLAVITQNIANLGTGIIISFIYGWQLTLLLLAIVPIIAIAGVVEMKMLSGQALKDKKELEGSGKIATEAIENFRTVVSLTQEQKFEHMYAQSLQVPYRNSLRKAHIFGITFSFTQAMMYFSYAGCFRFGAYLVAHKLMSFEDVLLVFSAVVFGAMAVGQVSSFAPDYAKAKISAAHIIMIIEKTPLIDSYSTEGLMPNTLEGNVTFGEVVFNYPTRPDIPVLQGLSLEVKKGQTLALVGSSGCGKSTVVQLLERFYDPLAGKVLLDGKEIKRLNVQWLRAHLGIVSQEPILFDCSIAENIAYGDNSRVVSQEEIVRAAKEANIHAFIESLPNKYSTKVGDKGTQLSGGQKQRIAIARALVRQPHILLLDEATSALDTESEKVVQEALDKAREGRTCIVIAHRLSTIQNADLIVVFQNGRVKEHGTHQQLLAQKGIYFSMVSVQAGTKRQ
# Method: The ATPase activities of Pgp were determined using Pgp-enriched membranes and a luminescent ATP detection kit (Pgp-Glo Assay Kit, Promega, USA) according to the manufacturer's instructions. Briefly, Pgp membranes (0.5 mg/mL) and Mg(II)-ATP (5 mM) were incubated in the absence or presence of sodium orthovanadate (100 μM) for 40 min/37° C. and ATP detected as a luciferase-generated luminescent signal. Basal Pgp-ATPase activities were determined as the difference between the ATP hydrolysis in the presence or absence of sodium orthovanadate. Verapamil-stimulated Pgp-ATPase activity was measured in the presence of the Pgp control substrate, verapamil (200 μM).
# Test substrates (Dp44mT and Bp4eT) of interest were dissolved in dimethyl sulfoxide. The final concentration of DMSO in the assay medium was less than 1%.
# The Pgp Glo™ ATPase assay (Promega, Madison, Wis.) was used to assess if Dp44mT and Bp4eT are substrates of Pgp. The ATPase assay measures the Pgp-mediated ATPase activity of Pgp by quantitating ATP consumption in the presence of the compounds of interest after incubation with purified membrane proteins containing high levels of Pgp. […] The basal ATPase activity of Pgp is compared to the ATPase activity stimulated or inhibited by the compounds of interest.
# [4] = test system: non-Pgp expressing KB31 cells; test: MTT proliferation assay, KB31 cells; format: cell-based, Human; conditions: for IC50: Homo sapiens, KB 3-1, 72 h incubation; for change of cytotoxicity in presence of Pgp inhibitors Val or Ela: Val 1 μM, Ela 0.1 μM, 72 h
# [5] = test system: non-Pgp expressing 2008 cells; test: MTT proliferation assay, 2008 cells; format: cell-based; conditions: for change of cytotoxicity in presence of Pgp inhibitors Val or Ela: 2008 cells, Val 1 μM, Ela 0.1 μM; for sensitivity of 2008 cells: compared to 2008/P200A cells
# Method: as §1, §2
# KBV1 cells [6] = test: MTT cytotoxicity after transient knockdown of Pgp (MDR1 siRNA) in KBV1 cells; format: cell-based, Human; conditions: Pgp siRNA vs. Scr siRNA, 72 h
# Method: as §2
# For all siRNA treatments against MDR1 (MDR1-siRNA; Cat #: 4123, Life Technologies), a siRNAlipofectamine mixture (50 nM MDR1 siRNA and 1/400 lipofectamine 2000) was added to the cells (at 30% confluency) and incubated for 72 h/37° C. prior to further experimentation. The effectiveness of Pgp knockdown was confirmed using western blot and also assessing DOX cytotoxicity via the MTT assay. As a control, scrambled siRNA (Scr siRNA; Life Technologies) was used at the same concentration as MDR1 siRNA.
# [7] = test system: Pgp-expressing KBV1 cells; test: Uptake of radio-labeled drug, KBV1 cells; format: cell-based, Human; conditions: for effect of Pgp inhibitors Val and Ela on uptake: KBV1 cells, Val 1 μM or Ela 0.1 μM pre-incubation, versus control
# Method: Cells were then washed on ice three times with ice-cold PBS and collected for analysis. Drug uptake was calculated as the number of drug molecules/cell. […] For studies using lysosomotropic agents, cells were pre-incubated with NH4Cl (5 mM), CLQ (100 μM) or MA (100 μM) for 30 min/37° C. prior to ^14C-Dp44mT uptake. […] For efflux assays, the same labeling procedure was conducted as in the uptake assay. […] After this procedure, the overlying media was removed using a Pasteur pipette and then placed in a counting vial. The cells were removed from the plate in 1 mL of PBS and then dispensed into a separate counting vial.
# [8] = test system: non-Pgp expressing KB31 cells; test: Uptake of radio-labeled drug, KB31 cells; format: cell-based, Human; conditions: Val 1 μM or Ela 0.1 μM pre-incubation, versus control
# Method: For the uptake assay, each 35 mm culture dish containing 5×10^5 cells was incubated with ^14C-doxorubicin, ^3H-vinblastine or ^14C-Dp44mT (all at 1 μCi) for 30 min/37° C. Cells were then washed on ice three times with ice-cold PBS and collected for analysis. Drug uptake was calculated as the number of drug molecules/cell. […] For studies using lysosomotropic agents, cells were pre-incubated with NH4Cl (5 mM), CLQ (100 μM) or MA (100 μM) for 30 min/37° C. prior to ^14C-Dp44mT uptake. […] For efflux assays, the same labeling procedure was conducted as in the uptake assay. […] After this procedure, the overlying media was removed using a Pasteur pipette and then placed in a counting vial. The cells were removed from the plate in 1 mL of PBS and then dispensed into a separate counting vial. The radiolabeled-drug efflux was calculated as a percentage of the total drug uptake by the cells found at zero time.
# Pgp-expressing cells = conditions: reported by others; cited from earlier work
# Pgp [9] = molecular target: T1, Pgp; design: purchased Promega; conditions: reported by others, biochemical assays; cited from earlier work
# [10] = test system: non-Pgp expressing KB31 cells; test: Rhodamine 123 accumulation assay, KB31 cells; format: cell-based, Human; conditions: increased concentrations
# Method: Cells were then harvested and resuspended in ice-cold PBS and kept on ice until flow cytometric analysis (see below).
# (§3) The dyes, Rh123 and acridine orange were detected with the FACS Canto flow cytometer (BD Biosciences) and 10,000 events were acquired for every sample. Data analysis was performed using FlowJo software, version 7.5.5 (Tree Star Inc., Ashland, OR).
# KBV1 cells [11] = test: Lysosomal integrity, acridine orange flow cytometry, KBV1 cells; format: cell-based, Human; conditions: 30 min incubation
# Method: Lysotracker® red (Life Technologies) and acridine orange (Sigma-Aldrich) are dyes showing high specificity for lysosomes and were used to determine lysosomal membrane permeability (LMP). The Lysotracker® red was visually assessed by fluorescence microscopy utilizing a Zeiss Axio Observer.Z1 Fluorescence Microscope equipped with an AxioCam camera (Zeiss, Oberkochen, Germany) and acridine orange was quantified by flow cytometry (see below).
# Briefly, cells were incubated with Lysotracker® red (50 nM) for 15 min/37° C. or acridine orange (20 nM) for 15 min/37° C., washed on ice 3 times with ice-cold PBS and then incubated with Cu[Dp44mT] (25 μM) for 30 min/37° C. or Dp44mT alone (25 μM) for 30 min or 24 h/37° C.
# as §3
# [12] = Redox studies: oxidation of H2DCF, cell-free
# Method: These studies were conducted in an acetate buffer (150 mM; pH 5) containing cysteine (100 μM) to mimic lysosomal conditions. In these experiments, hydrogen peroxide (100 μM) was added to initiate ROS generation.
molecule,measurement,setting,value
"CCNC(=S)NN=C(c1ccccc1)c1ccccn1 [Bp4eT, 2-benzoylpyridine-4-ethyl-3-thiosemicarbazone]",more cytotoxic in drug-resistant KBV1 cells compared to KB31 cells,[1],6.7 fold
same,sensitivity of 2008/P200A cells compared to 2008 cells,[2],significantly (p<0.001) increased sensitivity
same,Pgp-ATPase activity (in words),Pgp [3]; relative to basal activity,significant (p<0.001) stimulation of ATPase activity
"C/C=C/C[C@@H](C)C(=O)[C@H]1C(=O)N[C@@H](C(C)C)C(=O)N(C)CC(=O)N(C)[C@@H](CC(C)C)C(=O)N[C@@H](C(C)C)C(=O)N(C)[C@@H](CC(C)C)C(=O)N[C@@H](C)C(=O)N[C@H](C)C(=O)N(C)[C@@H](CC(C)C)C(=O)N(C)[C@@H](CC(C)C)C(=O)N(C)[C@@H](C(C)C)C(=O)N1C [Val, Valspodar]",decrease of ATPase activity relative to the basal control,"Pgp [3]; Pgp-enriched membranes, 40 min",5 fold
"COc1cccc2c1C(=O)c1c(O)c3c(c(O)c1C2=O)C[C@@](O)(C(=O)CO)C[C@@H]3O[C@H]1C[C@H](N)[C@H](O)[C@H](C)O1 [DOX, Doxorubicin]",IC50,[1],96.4 ± 10.1 µM
same,change of cytotoxicity in presence of Pgp inhibitors Val or Ela,[1],markedly sensitized
same,increase in resistance of KBV1 cells compared to KB31 cells,[1],220 fold
same,IC50,[4],0.44 ± 0.003 µM
same,change of cytotoxicity in presence of Pgp inhibitors Val or Ela,[4],no significant (p>0.05) change in cytotoxicity
same,change of cytotoxicity in presence of Pgp inhibitors Val or Ela,[2],abrogated the resistance
same,sensitivity of 2008/P200A cells compared to 2008 cells,[2],significantly higher resistance
same,change of cytotoxicity in presence of Pgp inhibitors Val or Ela,[5],did not significantly (p>0.05) affect the cytotoxicity
same,sensitivity of 2008 cells,[5],extremely sensitive
same,decrease of IC50 by knockdown of Pgp,KBV1 cells [6],15 fold
same,effect of Pgp inhibitors Val and Ela on uptake,[7],significantly (p<0.001) increased the uptake
same,cellular accumulation in KBV1 cells relative to KB31 cells,"[7]; control groups, 1 μCi",significantly (p<0.001) less
same,effect of Pgp inhibitors Val and Ela on uptake,[8],did not significantly alter radiolabel uptake
COc1ccc(NC(=S)N=Nc2c(O)[nH]c3c(Cl)cc(Cl)cc23)cc1 [NSC73306],cytotoxicity to Pgp-expressing cells compared to parent cells,Pgp-expressing cells,increased cytotoxicity to Pgp-expressing cells
same,direct interaction with Pgp,Pgp [9],no direct interaction
"COc1cc2c(cc1OC)CN(CCc1ccc(NC(=O)c3cccc4c(=O)c5cccc(OC)c5[nH]c34)cc1)CC2 [Ela, Elacridar]",effect on Rh123 accumulation,[10],no significant effect on Rh123 accumulation
"[Cl][Cu][Cl] [CuCl2, copper(II) chloride]",Pgp-ATPase activity (in words),Pgp [3],Neither FeCl3 nor CuCl2 significantly stimulated ATPase activity
same,lysosomal integrity (acridine orange),KBV1 cells [11],did not compromise lysosomal integrity
same,redox activity (H2DCF oxidation),"[12]; acetate buffer pH 5, cysteine, H2O2, over 12 min",no activity
"CC[C@]1(O)C[C@@H]2CN(CCc3c([nH]c4ccccc34)[C@@](C(=O)OC)(c3cc4c(cc3OC)N(C)[C@H]3[C@@](O)(C(=O)OC)[C@H](OC(C)=O)[C@]5(CC)C=CCN6CC[C@]43[C@@H]65)C2)C1 [VBL, Vinblastine]",IC50,[1],29.7 ± 1.77 µM
same,change of cytotoxicity in presence of Pgp inhibitors Val or Ela,[1],markedly sensitized
same,increase in resistance of KBV1 cells compared to KB31 cells,[1],221 fold
same,IC50,[4],0.13 ± 0.004 µM
same,change of cytotoxicity in presence of Pgp inhibitors Val or Ela,[4],no significant (p>0.05) change in cytotoxicity
same,change of cytotoxicity in presence of Pgp inhibitors Val or Ela,[2],abrogated the resistance
same,sensitivity of 2008/P200A cells compared to 2008 cells,[2],significantly higher resistance
same,change of cytotoxicity in presence of Pgp inhibitors Val or Ela,[5],did not significantly (p>0.05) affect the cytotoxicity
same,sensitivity of 2008 cells,[5],extremely sensitive
same,effect of Pgp inhibitors Val and Ela on uptake,[7],significantly (p<0.001) increased the uptake
same,effect of Pgp inhibitors Val and Ela on uptake,[8],did not significantly alter radiolabel uptake
tetrathiolmolybdate [TM],effect on redox activity / ROS generation of Cu[Dp44mT],"[12]; 5 μM, acetate buffer pH 5",totally prevented
[Cl][Fe]([Cl])[Cl] [FeCl3],Pgp-ATPase activity (in words),Pgp [3],Neither FeCl3 nor CuCl2 significantly stimulated ATPase activity
same,lysosomal integrity (acridine orange),KBV1 cells [11],did not compromise lysosomal integrity
